Experimental data published in paper PMC5132298 (PLoS ONE, 2016).
≈ marks a conversion by molar mass, not a printed value. Like-named read-outs stand apart in the source and are kept apart here.

Columns and labels:
[1] = target: T1, ScErg11p6×His (S. cerevisiae lanosterol 14α-demethylase) (Saccharomyces cerevisiae, UniProt P10614); assay: Type II binding (difference spectra) to affinity purified ScErg11p6×His; conditions: for mode of inhibition: ScErg11p6×His; for Induced spectral shift on ligand binding Wavelength: Soret peak, (-) indicates no significant change in Soret peak wavelength; for [Azole]0.5: azole concentration giving half ΔAmax, 1 µM ScErg11p6×His; for type of binding (difference spectra): azole up to 2 μM, 1 μM ScErg11p6×His
T1 construct: Crystal structures of the full length S. cerevisiae lanosterol 14α-demethylase (ScErg11p6×His); 6×His (hexahistidine); made in house; host or cells: Saccharomyces cerevisiae (AD3Δ overexpression strain, native ERG11 deleted)
T1 sequence (P10614 whole entry): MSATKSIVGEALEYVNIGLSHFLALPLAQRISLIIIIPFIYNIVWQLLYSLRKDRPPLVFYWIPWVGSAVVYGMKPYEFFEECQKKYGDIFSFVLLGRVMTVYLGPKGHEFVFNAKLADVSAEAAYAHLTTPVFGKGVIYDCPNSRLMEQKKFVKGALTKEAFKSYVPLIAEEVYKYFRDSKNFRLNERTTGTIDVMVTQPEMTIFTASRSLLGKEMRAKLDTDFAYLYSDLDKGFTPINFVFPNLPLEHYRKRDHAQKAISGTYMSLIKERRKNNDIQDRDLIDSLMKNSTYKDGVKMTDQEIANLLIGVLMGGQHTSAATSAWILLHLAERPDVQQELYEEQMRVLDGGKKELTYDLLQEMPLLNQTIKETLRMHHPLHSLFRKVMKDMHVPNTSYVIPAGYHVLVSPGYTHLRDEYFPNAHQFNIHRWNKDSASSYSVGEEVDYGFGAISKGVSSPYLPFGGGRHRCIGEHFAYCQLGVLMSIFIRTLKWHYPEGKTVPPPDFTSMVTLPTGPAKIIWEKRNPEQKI
Method: Type II azole binding is characterised by a shift of the Soret peak from 417 nm to 421–424 nm in ScErg11p6×His and other cytochrome P450s. The type II difference spectra were used to detect and quantitate binding of the inhibitors S-TBZ, R-TBZ, S-PTZ, R-PTZ, S-DPZ, R-DPZ, S-oxo-PTZ and R-oxo-PTZ, FQZ, and PRZ using Ni-NTA affinity purified wild type ScErg11p6×His preparations at 1 μM. Spectral shifts, [Azole]0.5 values, Hill coefficients as well as Type II difference spectra binding curves are shown in S3 Table (selected spectra shown in S2 Fig) and Fig 6, respectively.
Samples of Ni-NTA-agarose affinity purified ScErg11p6×His were eluted with 40 mM histidine instead of imidazole as described by Warrilow et al.. Samples were washed free of the histidine and concentrated by centrifugal filtration using a 50 kDa molecular-weight cut-off Amicon Ultra-4 centrifugal filter (Millipore) to give protein with a Soret peak at 417 nm. Carbon monoxide binding was used to determine the concentration of functional cytochrome P450 for drug binding studies as described previously based on the protocol described by Guengerich et al. Saturation curves for the binding of type II ligands were determined by obtaining difference spectra for functional enzyme at 1 μM as described previously. […] All calculations were carried out using GraphPad Prism 6 Software (GraphPad Prism, San Diego, CA). [Azole]0.5 values were defined as the concentration of the azole drug that gave half ΔAmax.
Hill coefficients and Kd values were obtained by applying the Hill equation as described in Materials and methods. (-) indicates no significant change in Soret peak wavelength on exposure to the ligand. The data presented is a representative set

[2] = test system: S. cerevisiae AD2Δ host strain (native ERG11 retained); assay: MIC50 broth microdilution, AD2Δ host strain with native ERG11 retained; assay type: cell-based, Saccharomyces cerevisiae
Method: (§1) The susceptibility to azole compounds of S. cerevisiae AD3Δ strains overexpressing Erg11p6×His wild type and Y140F/H, but with the native ERG11 deleted, as well as the host strain (AD2Δ) which retained the wild type ERG11 (S2 Table), were measured as MIC50 values (Table 1). […] PTZ has been reported to be a prodrug for DPZ [27]. […] There was a 3.3 fold (0.28 ± 0.02 μM) and a 4.3 fold (1.2 ± 0.2 μM) reduction in susceptibility to S-PTZ in the Y140F and Y140H mutant strains respectively. There was only a 2 fold reduction in susceptibility to R-PTZ in the Y140H mutant strain with no change seen in the Y140F strain. The PTZ metabolite, S-DPZ produced a 4.6 fold (0.073 ± 0.016 μM) and 3 fold (0.048 ± 0.009 μM) reduction is susceptibility against the Y140F and Y140H mutant strains respectively. […] Again we observed 8.3 fold (3.3 ± 0.7 μM) and 4 fold (1.6 ± 0.5 μM) reduction in susceptibility to FQZ in the Y140F and Y140H mutant strains respectively.
(§2) The susceptibilities of strains overexpressing wild type ScErg11p6×His and ScErg11p6×His Y140F/H to CYP51 inhibitors were measured as MIC50 values using broth microdilution assays as described previously.[21] The MIC50s were defined as the concentration of drug required for 50% growth inhibition compared to no drug controls.

[3] = test system: S. cerevisiae AD3Δ overexpressing ScErg11p6×His wild type, native ERG11 deleted; assay: MIC50 broth microdilution, AD3Δ strain overexpressing wild type ScErg11p6×His; assay type: cell-based, Saccharomyces cerevisiae; conditions: for fold more active than the R enantiomer (MIC50): S versus R enantiomer, MIC50 values for AD3Δ strains
Method: as §1, §2

[4] = test system: S. cerevisiae AD3Δ overexpressing ScErg11p6×His Y140F, native ERG11 deleted; assay: MIC50 broth microdilution, strain overexpressing ScErg11p6×His Y140F; assay type: cell-based, Saccharomyces cerevisiae; conditions: for fold reduction in susceptibility in Y140F mutant strain: MIC50 Y140F strain versus AD3Δ wild type overexpressing strain
Method: as §1, §2

[5] = test system: S. cerevisiae AD3Δ overexpressing ScErg11p6×His Y140H, native ERG11 deleted; assay: MIC50 broth microdilution, strain overexpressing ScErg11p6×His Y140H; assay type: cell-based, Saccharomyces cerevisiae; conditions: for fold reduction in susceptibility in Y140H mutant strain: MIC50 Y140H strain versus AD3Δ wild type overexpressing strain
Method: as §1, §2

Candida albicans CYP51 = test system: Candida albicans CYP51; parameters: method as in PMID 23275516; conditions: cited from earlier work
[6] = test system: Alternaria sonali, Fulvia fulva, Botrytis cinerea and Rhizoctonia solani; parameters: method as in PMID 23451708; conditions: 4 fungal pathogens; cited from earlier work
[7] = AD2Δ host, native ERG11 retained, mean ± standard error
[8] = AD3Δ, ScErg11p6×His overexpressed from PDR5 locus, native ERG11 deleted, mean ± standard error
[9] = Y140F, ScErg11p6×His Y140F overexpressed from PDR5 locus, native ERG11 deleted, mean ± standard error
[10] = Y140H, ScErg11p6×His Y140H overexpressed from PDR5 locus, native ERG11 deleted, mean ± standard error

Row | SMILES | Induced spectral shift on ligand binding Wavelength [1] | MIC50 ([2]; Saccharomyces cerevisiae) [µM] | MIC50 ([3]; Saccharomyces cerevisiae) [µM] | fold reduction in susceptibility in Y140F mutant strain [4] [fold] | MIC50 ([4]; Saccharomyces cerevisiae) [µM] | fold reduction in susceptibility in Y140H mutant strain [5] [fold] | MIC50 ([5]; Saccharomyces cerevisiae) [µM] | Kd [1] [µM] | [Azole]0.5 [1] [µM] | type of binding (difference spectra) [1] | further results
1 | CC(C)(C)C(O)(CCc1ccc(Cl)cc1)Cn1cncn1 (stereo not shown) [TBZ, tebuconazole] | 417 nm to ~421 | – | – | – | – | – | – | – | – | – | mode of inhibition [1]: non-competitive inhibitors
2 | CC1COC(Cn2cncn2)(c2ccc(Oc3ccc(Cl)cc3)cc2Cl)O1 (stereo not shown) [Difenoconazole, difenoconazole] | – | 0.0147 ± 0.0003 (≈ 0.00597 µg/mL) | 0.047 ± 0.009 (≈ 0.0191 µg/mL) | 5.2 | 0.243 ± 0.003 (≈ 0.0987 µg/mL) | 5 | 0.237 ± 0.003 (≈ 0.0963 µg/mL) | – | – | – | –
3 | OC(Cc1ccccc1Cl)(Cn1nc[nH]c1=S)C1(Cl)CC1 (stereo not shown) [R-Prothioconazole, R-prothioconazole] | 417 (-) nm | – | – | – | – | – | – | – | – | – | MIC50 [2, 7]: 5.2 ± 1.3 µM (≈ 1.79 µg/mL); MIC50 [3, 8]: 16 ± 3 µM (≈ 5.51 µg/mL); fold reduction in susceptibility in Y140F mutant strain ([4]; listed as R-PTZ): no change; MIC50 [4, 9]: 16 ± 4 µM (≈ 5.51 µg/mL); fold reduction in susceptibility in Y140H mutant strain ([5]; listed as R-PTZ): 2 fold; MIC50 [5, 10]: 31 ± 4 µM (≈ 10.7 µg/mL)
4 | OC(Cc1ccccc1Cl)(Cn1nc[nH]c1=S)C1(Cl)CC1 (stereo not shown) [S-Prothioconazole, S-prothioconazole] | 417 (-) nm | – | – | – | – | – | – | – | – | – | MIC50 [2, 7]: 0.077 ± 0.003 µM (≈ 0.0265 µg/mL); MIC50 [3, 8]: 0.28 ± 0.02 µM (≈ 0.0964 µg/mL); fold more active than the R enantiomer (MIC50) [3]: 57 fold; MIC50 [4, 9]: 0.93 ± 0.0 µM (≈ 0.32 µg/mL); fold reduction in susceptibility in Y140H mutant strain ([5]; listed as S-PTZ): 4.3 fold; MIC50 [5, 10]: 1.2 ± 0.2 µM (≈ 0.413 µg/mL)
5 | O=c1[nH]cnn1CC(O)(Cc1ccccc1Cl)C1(Cl)CC1 (stereo not shown) [oxo-PTZ, oxo-prothioconazole] | absence of a spectral shift | – | – | – | – | – | – | – | – | – | –
6 | CC(C)(C)[C@@](O)(CCc1ccc(Cl)cc1)Cn1cncn1 [S-Tebuconazole, S-tebuconazole] | – | 0.0197 ± 0.0003 (≈ 0.00606 µg/mL) | 0.073 ± 0.015 (≈ 0.0225 µg/mL) | 8.7 | 0.64 ± 0.11 (≈ 0.197 µg/mL) | 11.9 | 0.87 ± 0.06 (≈ 0.268 µg/mL) | 0.115 ± 0.044 | 0.33 | type II binding | fold more active than the R enantiomer (MIC50) [3]: 15 fold
7 | O=c1c2cc(F)ccc2nc(-n2cncn2)n1-c1ccc(Cl)cc1Cl [Fluquinconazole, fluquinconazole] | – | 0.17 ± 0.02 (≈ 0.064 µg/mL) | 0.4 ± 0.05 (≈ 0.15 µg/mL) | 8.3 | 3.3 ± 0.7 (≈ 1.24 µg/mL) | 4 | 1.6 ± 0.5 (≈ 0.602 µg/mL) | 0.015 ± 0.021 | 0.31 | type II binding | mode of inhibition [1]: non-competitive inhibitors; Induced spectral shift on ligand binding Wavelength ([1]; listed as FQZ): 417 nm to ~421
8 | O=c1[nH]cnn1CC(O)(Cc1ccccc1Cl)C1(Cl)CC1 (stereo not shown) [R-Oxo-prothioconazole, R-oxo-prothioconazole] | 417(-) nm | – | – | – | – | – | – | – | – | neither type I nor type II binding | MIC50 [2, 7]: 75.0 ± 3.0 µM (≈ 24.6 µg/mL); MIC50 [3, 8]: 80 ± 2 µM (≈ 26.3 µg/mL); MIC50 [4, 9]: 87 ± 7 µM (≈ 28.6 µg/mL); MIC50 [5, 10]: 95 ± 5 µM (≈ 31.2 µg/mL)
9 | CC(C)(C)[C@](O)(CCc1ccc(Cl)cc1)Cn1cncn1 [R-Tebuconazole, R-tebuconazole] | – | 0.12 (≈ 0.0369 µg/mL) | 1.1 ± 0.3 (≈ 0.339 µg/mL) | – | 2 ± 0.2 (≈ 0.616 µg/mL) | – | 5.2 ± 1.3 (≈ 1.6 µg/mL) | 0.065 ± 0.035 | 0.30 | type II binding | –
10 | CCCN(CCOc1c(Cl)cc(Cl)cc1Cl)C(=O)n1ccnc1 [Prochloraz, prochloraz] | – | 0.25 ± 0.02 (≈ 0.0942 µg/mL) | 1.9 ± 0.5 (≈ 0.716 µg/mL) | 2.3 | 4.3 ± 0.8 (≈ 1.62 µg/mL) | 3.5 | 6.7 ± 0.7 (≈ 2.52 µg/mL) | 0.027 ± 0.024 | 0.30 | type II binding | mode of inhibition [1]: non-competitive inhibitors; Induced spectral shift on ligand binding Wavelength ([1]; listed as PRZ): 417 nm to ~421
11 | O=c1[nH]cnn1CC(O)(Cc1ccccc1Cl)C1(Cl)CC1 (stereo not shown) [S-Oxo-prothioconazole, S-oxo-prothioconazole] | 417(-) nm | – | – | – | – | – | – | – | – | neither type I nor type II binding | MIC50 [2, 7]: 75.0 ± 0.0 µM (≈ 24.6 µg/mL); MIC50 [3, 8]: 84 ± 3 µM (≈ 27.6 µg/mL); MIC50 [4, 9]: 87 ± 7 µM (≈ 28.6 µg/mL); MIC50 [5, 10]: 97 ± 3 µM (≈ 31.8 µg/mL)
12 | O[C@](Cc1ccccc1Cl)(Cn1cncn1)C1(Cl)CC1 [R-Prothioconazole-desthio, R-prothioconazole-desthio] | – | 0.47 ± 0.05 (≈ 0.147 µg/mL) | 3.2 ± 0.2 (≈ 0.999 µg/mL) | 2.3 | 7.5 (≈ 2.34 µg/mL) | 2.3 | 7.5 (≈ 2.34 µg/mL) | 0.054 ± 0.031 | 0.33 | type II binding | –
13 | OC(Cc1ccccc1Cl)(Cn1cncn1)C1(Cl)CC1 (stereo not shown) [DPZ, prothioconazole-desthio] | 417 nm to ~421 | – | – | – | – | – | – | – | – | – | mode of inhibition [1]: non-competitive inhibitors; Kd (Candida albicans CYP51; read-out: Kd (tight type II binding), Candida albicans CYP51, type II binding): 0.0364 ± 0.0107 µM
14 | O[C@@](Cc1ccccc1Cl)(Cn1cncn1)C1(Cl)CC1 [S-Prothioconazole-desthio, S-prothioconazole-desthio] | – | 0.006 ± 0.001 (≈ 0.00187 µg/mL) | 0.0157 ± 0.0003 (≈ 0.0049 µg/mL) | 4.6 | 0.073 ± 0.016 (≈ 0.0228 µg/mL) | 3 | 0.048 ± 0.009 (≈ 0.015 µg/mL) | 0.102 ± 0.045 | 0.42 | type II binding | fold more active than the R enantiomer (MIC50) [3]: 200 fold
15 | OC(Cc1ccccc1Cl)(Cn1nc[nH]c1=S)C1(Cl)CC1 (stereo not shown) [PTZ, prothioconazole] | absence of a spectral shift | – | – | – | – | – | – | – | – | no binding | Kd (Candida albicans CYP51; Candida albicans CYP51, type I difference spectra, read-out: Kd (weak type I difference spectra)): 6.3 ± 1.5 µM
16 | C[C@@H]1CO[C@@](Cn2cncn2)(c2ccc(Oc3ccc(Cl)cc3)cc2Cl)O1 [2S,4R stereoisomer, 1-(((2S,4R)-2-(2-chloro-4-(4-chlorophenoxy)phenyl)-4-methyl-1,3-dioxolan-2-yl)methyl)-1H-1,2,4-triazole] | – | – | – | – | – | – | – | – | – | – | stereoselective bioactivity among DFC stereoisomers [6]: most active compound
